Measured values as given in patent US20250059156A1, “THERAPEUTIC ALKALOID COMPOUNDS” (Sensorium Therapeutics, Inc., priority 2022, published 2025).

Columns and labels:
[1] = in vivo; cited from earlier work
C57/Bl6 mice = assay: Behavioral evaluation assay (SmartCube test); assay type: in vivo; settings: FIG. 1
Method: The CNS-like activity of test compounds after acute intraperitoneal administration was evaluated in naïve C57/Bl6 mice using the SmartCube® test.
Male C57/Bl6 mice from Taconic Laboratories (Germantown, NY) were used. Upon receipt, mice were group-housed in Optimice® ventilated cages with 4 mice per cage. Mice were acclimated to the colony room for at least one week prior to test, and subsequently tested at approximately 8-9 weeks of age. All animals were examined, handled, and weighed prior to initiation of the study to assure adequate health and suitability and to minimize nonspecific stress associated with manipulation. During the course of the study, 12/12 light/dark cycles were maintained. The room temperature was 20-23° C. with a relative humidity maintained between 30-70%. Chow and water were provided ad libitum for the duration of the study.
Test compounds were formulated in 5% Pharmasolve, 30% P3 (1:1:1 PEG200, PEG400, propylene glycol) and 65% saline. […]
For class and subclass analysis, a reference dataset has been built from hundreds of drug doses in multiple drug classes plus a control group. […] Multiple analyses of the data was performed to quantitatively produce independent predictions of drug class, and drug subclass. The behavioral signatures of the test drug were evaluated using these classifiers to predict potential therapeutic utility.

SERT = SERT (Homo sapiens (Human), UniProt P31645); assay: SERT inhibition assay (Neurotransmitter Transporter Fluorescence assay); assay type: cell-based; settings: class symbols; legend in nM/micromolar
Method: SERT inhibition was measured using a Neruotransmitter Transportation Fluorescence assay. Briefly, stable 5HHH cells were prepared in a 384 microwell plate. Compounds were prepared by in assay buffer (20 mM HEPES, 0.1% BSA). The compounds were added to the plated cells and incubated for 30 minutes at 37° C. 25 μL of dye solution (Molecular Devices Neurotransmitter Transporter Uptake Assay Kit) was added per well and incubated for 30 minutes at 37° C. The plates were then read on a plate reader.

PDE4A1A = PDE4A1A (Homo sapiens (Human), UniProt P27815); assay: PDE4 percent inhibition assay; assay type: biochemical; settings: 10 μM
Method: (§1) PDE4 assay kit (BPS Bioscience, San Diego, CA), as described below.
(§2) • 1) Dilute 20 μM FAM-Cyclic-3′, 5′-AMP stock 100-fold with PDE buffer to make a 200 nM solution. Make only sufficient quantity needed for the assay; store remaining 20 μM stock solution in aliquots at −20° C. • 2) Add 25 μl of FAM-Cyclic-3′,5′-AMP (200 nM) to each well designated “Positive Control”, “Test Inhibitor”, and “Substrate Control”. • 3) Add 20 μl of PDE assay buffer to each well designated “Substrate Control” and 45 μl of PDE assay buffer to each well designated “Blank”. • 4) Add 5 μl of inhibitor solution to each well designated “Test Inhibitor”. For the wells labeled “Positive Control”, “Substrate Control” and “Blank”, add 5 μl of the same solution without inhibitor (inhibitor buffer). • 5) Thaw PDE on ice. Upon first thaw, briefly spin tube containing enzyme to recover the full contents of the tube. • 6) Dilute PDE4 in PDE buffer to 7.5 pg/μl (0.15 ng/reaction)*. Initiate reaction by adding 20 μl of PDE4 (7.5 pg/μl) to the wells designated “Positive Control” and “Test Inhibitor.” • 7) Incubate at room temperature for 1 hour.
(§3) • 1) Mix binding agent thoroughly and dilute binding agent 1:100 with binding agent diluent. • 2) Add 100 μl diluted binding agent to each microwell. Incubate at room temperature for 1 hour with slow shaking. • 3) Read the fluorescent polarization of the sample in a microtiter-plate reader equipped for the measurement of fluorescence polarization, capable of excitation at wavelengths ranging from 485±5 nm and detection of emitted light ranging from 528±10 nm. Blank value is subtracted from all other values.
(§4) 100 µM dilutions of the test compounds were prepared in assay buffer (10% DMSO concentration) and 5 μl of the dilution was added to a 50 μl reaction so that the final concentration of DMSO is 1% in all of reactions.
(§5) The enzymatic reactions were conducted at room temperature for 60 minutes in a 50 μl mixture containing PDE assay buffer, 100 nM FAM-cAMP, a PDE enzyme and the test compound.
(§6) After the enzymatic reaction, 100 Is of a binding solution (1:100 dilution of the binding agent with the binding agent diluent) was added to each reaction and the reaction was performed at room temperature for 60 minutes.
(§7) Fluorescence intensity was measured at an excitation of 485 nm and an emission of 528 nm using a Tecan Infinite M1000 microplate reader.

PDE4B2 = PDE4B2 (Homo sapiens (Human), UniProt Q07343); assay: PDE4 percent inhibition assay; assay type: biochemical; settings: 10 μM
Method: as §1, §2, §3, §4, §5, §6, §7

PDE4C1 = PDE4C1 (Homo sapiens (Human), UniProt Q08493); assay: PDE4 percent inhibition assay; assay type: biochemical; settings: 10 μM
Method: as §1, §2, §3, §4, §5, §6, §7

PDE4D2 = PDE4D2 (Homo sapiens (Human), UniProt Q08499); assay: PDE4 percent inhibition assay; assay type: biochemical; settings: 10 μM
Method: as §1, §2, §3, §4, §5, §6, §7

5-HT transporter (SERT) = 5-HT transporter (SERT) (Homo sapiens (Human), UniProt P31645); settings: concentration response curve; cited from earlier work

Chain of PDE4D2 (Q08499 303-809, change not shown): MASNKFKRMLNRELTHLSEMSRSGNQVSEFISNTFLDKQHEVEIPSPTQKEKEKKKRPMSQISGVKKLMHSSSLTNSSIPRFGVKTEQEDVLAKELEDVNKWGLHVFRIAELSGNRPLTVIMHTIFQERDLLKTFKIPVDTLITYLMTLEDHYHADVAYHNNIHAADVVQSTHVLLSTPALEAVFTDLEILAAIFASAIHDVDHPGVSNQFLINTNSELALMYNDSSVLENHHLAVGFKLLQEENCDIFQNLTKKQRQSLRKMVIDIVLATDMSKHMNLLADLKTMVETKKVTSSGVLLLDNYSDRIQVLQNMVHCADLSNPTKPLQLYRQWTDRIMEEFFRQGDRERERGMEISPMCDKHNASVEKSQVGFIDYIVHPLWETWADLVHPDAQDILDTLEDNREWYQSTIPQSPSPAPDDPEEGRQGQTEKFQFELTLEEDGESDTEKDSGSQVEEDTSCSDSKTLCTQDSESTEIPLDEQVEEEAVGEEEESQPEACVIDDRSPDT
Chain of PDE4A1A (P27815 other isoform, or with tags, fused parts or gaps): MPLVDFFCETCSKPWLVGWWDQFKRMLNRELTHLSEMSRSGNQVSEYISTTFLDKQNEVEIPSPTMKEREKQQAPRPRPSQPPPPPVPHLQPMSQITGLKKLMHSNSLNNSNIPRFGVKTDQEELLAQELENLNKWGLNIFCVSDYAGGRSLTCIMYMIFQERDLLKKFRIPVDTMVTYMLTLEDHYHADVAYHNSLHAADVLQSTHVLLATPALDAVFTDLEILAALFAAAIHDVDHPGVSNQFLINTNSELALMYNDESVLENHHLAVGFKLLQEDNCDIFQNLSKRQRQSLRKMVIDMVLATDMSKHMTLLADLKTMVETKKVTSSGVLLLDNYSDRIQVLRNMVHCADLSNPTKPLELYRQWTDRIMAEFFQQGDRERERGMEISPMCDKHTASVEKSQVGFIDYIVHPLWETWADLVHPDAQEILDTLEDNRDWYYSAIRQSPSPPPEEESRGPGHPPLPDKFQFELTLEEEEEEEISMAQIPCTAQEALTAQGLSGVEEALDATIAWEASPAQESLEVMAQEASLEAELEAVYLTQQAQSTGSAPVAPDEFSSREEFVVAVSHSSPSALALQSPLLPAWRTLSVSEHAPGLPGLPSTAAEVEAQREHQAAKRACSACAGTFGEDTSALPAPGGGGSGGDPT
Chain of PDE4C1 (Q08493 whole entry): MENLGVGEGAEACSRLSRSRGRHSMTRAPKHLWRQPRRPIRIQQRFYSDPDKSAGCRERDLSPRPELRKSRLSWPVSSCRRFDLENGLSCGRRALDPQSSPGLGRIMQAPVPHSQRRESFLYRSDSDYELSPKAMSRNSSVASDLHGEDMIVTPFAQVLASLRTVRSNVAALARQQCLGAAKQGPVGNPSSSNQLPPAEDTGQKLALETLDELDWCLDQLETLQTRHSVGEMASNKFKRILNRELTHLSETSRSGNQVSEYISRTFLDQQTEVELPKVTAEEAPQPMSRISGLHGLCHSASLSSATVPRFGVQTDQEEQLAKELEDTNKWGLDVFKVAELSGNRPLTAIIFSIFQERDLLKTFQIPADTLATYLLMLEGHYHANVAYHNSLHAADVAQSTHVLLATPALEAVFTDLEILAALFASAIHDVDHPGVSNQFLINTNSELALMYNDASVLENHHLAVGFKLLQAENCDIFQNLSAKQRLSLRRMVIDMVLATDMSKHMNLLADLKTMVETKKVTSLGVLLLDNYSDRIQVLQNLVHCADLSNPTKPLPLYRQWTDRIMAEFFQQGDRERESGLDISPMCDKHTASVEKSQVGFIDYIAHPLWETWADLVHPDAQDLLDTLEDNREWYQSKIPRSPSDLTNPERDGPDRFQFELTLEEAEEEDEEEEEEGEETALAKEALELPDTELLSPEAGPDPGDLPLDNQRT
Chain of SERT (P31645 whole entry, species assumed): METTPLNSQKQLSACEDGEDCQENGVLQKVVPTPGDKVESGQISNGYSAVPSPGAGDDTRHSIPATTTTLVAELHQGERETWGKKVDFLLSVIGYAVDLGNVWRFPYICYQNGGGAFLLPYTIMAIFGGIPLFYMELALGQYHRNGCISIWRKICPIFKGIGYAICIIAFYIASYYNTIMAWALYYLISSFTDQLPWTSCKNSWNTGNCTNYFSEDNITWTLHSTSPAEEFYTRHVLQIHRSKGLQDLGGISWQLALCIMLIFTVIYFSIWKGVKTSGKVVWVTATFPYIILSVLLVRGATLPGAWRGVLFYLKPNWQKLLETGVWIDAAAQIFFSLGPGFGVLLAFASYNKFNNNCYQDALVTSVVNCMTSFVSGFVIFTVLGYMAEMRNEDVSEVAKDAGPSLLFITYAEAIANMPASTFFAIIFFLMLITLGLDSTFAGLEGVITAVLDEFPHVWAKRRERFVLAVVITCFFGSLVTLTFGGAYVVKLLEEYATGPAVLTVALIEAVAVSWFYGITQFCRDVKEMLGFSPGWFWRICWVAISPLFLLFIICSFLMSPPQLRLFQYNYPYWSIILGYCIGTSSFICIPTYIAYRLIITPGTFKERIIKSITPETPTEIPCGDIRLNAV
Chain of PDE4B2 (Q07343 other isoform, or with tags, fused parts or gaps): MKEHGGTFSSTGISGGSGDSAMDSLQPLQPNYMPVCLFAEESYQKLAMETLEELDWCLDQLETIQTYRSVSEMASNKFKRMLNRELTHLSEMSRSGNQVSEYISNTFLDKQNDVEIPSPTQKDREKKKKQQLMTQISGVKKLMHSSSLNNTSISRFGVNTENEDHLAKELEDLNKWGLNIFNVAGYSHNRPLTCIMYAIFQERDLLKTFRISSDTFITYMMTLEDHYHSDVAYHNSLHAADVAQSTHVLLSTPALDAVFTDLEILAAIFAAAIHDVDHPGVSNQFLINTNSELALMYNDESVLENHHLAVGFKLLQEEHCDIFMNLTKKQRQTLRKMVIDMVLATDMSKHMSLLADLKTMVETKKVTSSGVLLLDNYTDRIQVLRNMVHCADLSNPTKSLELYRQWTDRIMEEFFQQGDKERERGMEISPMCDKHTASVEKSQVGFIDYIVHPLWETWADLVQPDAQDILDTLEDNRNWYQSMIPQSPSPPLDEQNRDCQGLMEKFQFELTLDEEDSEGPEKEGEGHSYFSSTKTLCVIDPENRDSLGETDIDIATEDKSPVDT

| SMILES | half-life in plasma [1] | behavioral phenotype compared to Compound 001 (C57/Bl6 mice) | IC50 (SERT) | PDE4 Isoform % Inhibition @ 10 μM PDE4A1A (PDE4A1A) | PDE4 Isoform % Inhibition @ 10 μM PDE4B2 (PDE4B2) | PDE4 Isoform % Inhibition @ 10 μM PDE4C1 (PDE4C1) | PDE4 Isoform % Inhibition @ 10 μM PDE4D2 (PDE4D2) | 5-HT transporter (SERT) nH (5-HT transporter (SERT)) |
| --- | --- | --- | --- | --- | --- | --- | --- | --- |
| COc1ccc([C@@]23CCC(=O)C[C@@H]2N(C)CC3)cc1OC [(−) mesembrine] | less than 2 hours |  |  |  |  |  |  |  |
| COc1ccc([C@@]23CC[C@@H](O)C[C@@H]2N(C)CC3)cc1OC [Compound 018, (3aS,6R,7aS)-3a-(3,4-dimethoxyphenyl)-1-methyloctahydro-1H-indol-6-ol] |  | different behavioral phenotype classification |  |  |  |  |  |  |
| COc1ccc([C@]23CC[C@H](n4ccc(C(F)(F)F)n4)C[C@H]2N(C)CC3)cc1OC [Compound 122] |  |  | > 1000 nM | D (D if the percent inhibition is less than 30%) | D (D if the percent inhibition is less than 30%) | D (D if the percent inhibition is less than 30%) | D (D if the percent inhibition is less than 30%) |  |
| COc1ccc([C@]23CCN(C)[C@H]2[C@H]2CC[C@@H]3CC2=O)cc1OC [Compound 203] |  |  | 50 to 100 nM | D (D if the percent inhibition is less than 30%) | B (B if the percent inhibition is 50-70%) | C (C is the percent inhibition is 30-50%) | B (B if the percent inhibition is 50-70%) |  |
| COc1ccc([C@]23CCN(C)[C@H]2[C@@H]2CC[C@H]3CC2=O)cc1OC [Compound 204] |  |  | 100 to 500 nM | A (A if the % inhibition is greater than or equal to 70%) | A (A if the % inhibition is greater than or equal to 70%) | A (A if the % inhibition is greater than or equal to 70%) | A (A if the % inhibition is greater than or equal to 70%) |  |
| COc1ccc([C@@]23CCN(C)[C@@H]2CC(=O)C[C@@H]3c2ccccc2)cc1OC [Compound 206] |  |  | > 1000 nM | A (A if the % inhibition is greater than or equal to 70%) | A (A if the % inhibition is greater than or equal to 70%) | B (B if the percent inhibition is 50-70%) | A (A if the % inhibition is greater than or equal to 70%) |  |
| COc1ccc([C@]23CCN(C)[C@H]2CC(=O)C[C@H]3c2ccccc2)cc1OC [Compound 207] |  |  | > 1000 nM | B (B if the percent inhibition is 50-70%) | B (B if the percent inhibition is 50-70%) | B (B if the percent inhibition is 50-70%) | B (B if the percent inhibition is 50-70%) |  |
| COc1ccc([C@]23CCN(C)[C@H]2CC(=O)[C@H]2O[C@H]23)cc1OC [Compound 209] |  |  | < 50 nM | A (A if the % inhibition is greater than or equal to 70%) | A (A if the % inhibition is greater than or equal to 70%) | A (A if the % inhibition is greater than or equal to 70%) | A (A if the % inhibition is greater than or equal to 70%) |  |
| COc1ccc([C@@]23CCN(C)[C@@H]2CC(=O)[C@@H]2O[C@@H]23)cc1OC [Compound 210] |  |  | 100 to 500 nM | A (A if the % inhibition is greater than or equal to 70%) | A (A if the % inhibition is greater than or equal to 70%) | A (A if the % inhibition is greater than or equal to 70%) | A (A if the % inhibition is greater than or equal to 70%) |  |
| COc1ccc([C@]23CCN(C)[C@H]2[C@@H]2C[C@H]3CC2=O)cc1OC [Compound 213] |  |  | > 1000 nM | A (A if the % inhibition is greater than or equal to 70%) | A (A if the % inhibition is greater than or equal to 70%) | A (A if the % inhibition is greater than or equal to 70%) | A (A if the % inhibition is greater than or equal to 70%) |  |
| COc1ccc([C@@]23CCN(C)[C@@H]2[C@H]2C[C@@H]3CC2=O)cc1OC [Compound 214] |  |  | 100 to 500 nM | A (A if the % inhibition is greater than or equal to 70%) | C (C is the percent inhibition is 30-50%) | D (D if the percent inhibition is less than 30%) | C (C is the percent inhibition is 30-50%) |  |
| COc1ccc([C@]23CCN(C)[C@H]2[C@H]2C[C@@H]3CC2=O)cc1OC [Compound 215] |  |  | 50 to 100 nM | D (D if the percent inhibition is less than 30%) | D (D if the percent inhibition is less than 30%) | D (D if the percent inhibition is less than 30%) | D (D if the percent inhibition is less than 30%) |  |
| COc1ccc([C@@]23CCN(C)[C@@H]2[C@@H]2C[C@H]3CC2=O)cc1OC [Compound 216] |  |  | 50 to 100 nM | D (D if the percent inhibition is less than 30%) | D (D if the percent inhibition is less than 30%) | C (C is the percent inhibition is 30-50%) | D (D if the percent inhibition is less than 30%) |  |
| COc1ccc([C@]23CCN(C)[C@H]2[C@@H]2CCC[C@H]3CC2=O)cc1OC [Compound 218] |  |  | < 50 nM | D (D if the percent inhibition is less than 30%) | D (D if the percent inhibition is less than 30%) | D (D if the percent inhibition is less than 30%) | D (D if the percent inhibition is less than 30%) |  |
| COc1ccc([C@@]23CCN(C)[C@@H]2[C@H]2CCC[C@@H]3CC2=O)cc1OC [Compound 219] |  |  | 100 to 500 nM | C (C is the percent inhibition is 30-50%) | C (C is the percent inhibition is 30-50%) | B (B if the percent inhibition is 50-70%) | C (C is the percent inhibition is 30-50%) |  |
| COc1ccc([C@@]23C=CC(=O)C[C@@H]2N(C)CC3)cc1OC [Mesembrenone] |  |  |  |  |  |  |  | 1.0 |
